Peptide text beside a SMILES is read from it.
Columns and labels:
II-IIIA degree burns [1] = test: Burn model in rats, hexapeptide as topical 0.02-0.5% solution (Example 3); format: in vivo, outbred male rats; conditions: for Day on which burn wound hyperaemia score reached 0: after thermal injury; for Day on which burn wound hyperaemia score reached 0 / Burn wound oedema score: topical; for Burn wound oedema score: score 0-3
Method: The efficacy of topical administration of tyrosyl-D-alanyl-glycyl-phenylalanyl-leucyl-arginine in the therapy of thermal burns was evaluated on models of II-IIIA degree burns in 30 outbred male rats. The animals were kept in a vivarium (ambient temperature 19-23° C.) according to Good Laboratory Practices of the Eurasian Economic Union and the applicable guidelines (Reference).
Flat-bottom glass containers of an appropriate diameter filled with liquid paraffin to ⅔ of their volume were used as the thermal agent. The containers were heated on a water bath before application to the skin of the rats, which were randomized to three groups (n=10 in each group): the control group and two experimental groups. Another tissue repair stimulator, dexpanthenol (5% topical ointment), was used as the comparator. All the rats received burns with a standardized area of ≈40 cm^2. Within 20 min. after inflicting the thermal injury, control group animals were treated by applying an aseptic dressing followed by therapy with Iodopiron and Levomecol (group I); animals in the experimental groups additionally received dexpanthenol (group II) or 0.02-0.5% solution of hexapeptide tyrosyl-D-alanyl-glycyl-phenylalanyl-leucyl-arginine (group III consisting of 5 animals that received 0.02% solution and 5 animals that received 0.5% solution).
The experiment involved evaluating the general condition of the animals and performing gross examination to evaluate the severity of tissue oedema in the burn region, hyperaemia, infiltration, appearance of wound discharge and wound epithelialization. These signs were scored as follows: maximum severity of a sign corresponded to a score of 3 points, and absence of a sign to a score of 0. Objective assessment of the healing process was based on planimetric measurements. All the observations were performed on days 1, 3, 5, 7 and 10 of the experiment.
The healing rate was determined using the formula V=(S1−S2)/t, where S1=wound area during the previous measurement, S2=wound area during the next measurement, t=number of days between the previous and the next measurement.
The experiment also included an evaluation of the white blood cell population as a ratio of the total number of lymphocytes to segmented cells in venous blood.

linear wounds = test: Linear (planar) skin wound model in rats (Example 4); format: in vivo, white male Wistar rats
Method: The study was performed in white male Wistar rats. All the animals were randomized to three groups of 13 rats each: (I) control Group (untreated), (II) comparator Group (Bepanthen topical cream with 5% dexpanthenol) and (III) experimental Group (hexapeptide tyrosyl-D-alanyl-glycyl-phenylalanyl-leucyl-arginine). The Group III consisted of 5 animals that received 0.02% solution and 5 animals that received 0.5% solution.
Linear wounds were modeled by an approximately 4-cm-long longitudinal incision in the skin and subcutaneous fat along the midline of the back. After making the incision, the edges of the wound were brought together, and three sutures were applied at an equal distance. The animals received the study drugs starting on the day of the operation; the control Group received a placebo. In each group, 3 rats were intended for a tensometric study, which required euthanasia on day 7 of the experiment. Samples for a histological evaluation were collected immediately after complete healing (on days 25-26).
The study drugs were applied once daily, every day, for 20 days. The wound healing effect was evaluated based on the clinical course (presence of purulent discharge, dynamics of wound edge attachment) on days 4, 7, 15 and 20 of the experiment.

II-IIIA degree burns [2] = test: Burn model in rats, hexapeptide as 0.02% and 0.5% gel (Example 5); format: in vivo, outbred male rats; conditions: for Average healing rate of burn wounds, difference to control Group I: FIG. 4; for Burn area (planimetry), dynamics of burn wound healing: vs control and Bepanthen
Method: The efficacy of topical administration of hexapeptide tyrosyl-D-alanyl-glycyl-phenylalanyl-leucyl-arginine in the therapy of thermal burns was evaluated on models of II-IIIA degree burns in 40 outbred male rats. The animals were kept in a vivarium according to Good Laboratory Practices of the Eurasian Economic Union and the applicable guidelines (Reference). Flat-bottom glass containers of an appropriate diameter filled with liquid paraffin to ⅔ of their volume were used as a thermal agent. The animals were randomized to four groups (n=10 in each group): Group I was the control group. A popular tissue repair product, Bepanthen (topical cream with 5% dexpanthenol), was used as the comparator. Burn area was standardized at Æ40 cm^2.
An aseptic dressing applied within the first 20 minutes after the burn, followed by therapy with Iodopiron and Levomecol, was used for control Group I. Group II was treated with Bepanthen. Group III received hexapeptide tyrosyl-D-alanyl-glycyl-phenylalanyl-leucyl-arginine as 0.02% topical gel, while Group IV received hexapeptide tyrosyl-D-alanyl-glycyl-phenylalanyl-leucyl-arginine as 0.5% topical gel.
In addition to monitoring the general condition of the animals on days 1, 3, 5, 7 and 10 of the experiment, the healing process was evaluated planimetrically. The healing rate was determined using the formula V=(S1-S2)/t, where S1=wound area during the previous measurement, S2=wound area during the next measurement, t=number of days between the previous and the next measurement.

burn injury = conditions: intraperitoneal; during 14 days after burn injury; Dalargin 0.5 mg/kg; control 60%; cited from earlier work
3rd degree burn = conditions: 0.3 mg subcutaneously; cited from earlier work
neutrophils = conditions: cited from earlier work

Row | Molecule | Day on which burn wound hyperaemia score reached 0 (II-IIIA degree burns [1]) | Burn wound oedema score (II-IIIA degree burns [1]; day 1 after thermal injury) | Burn wound oedema score (II-IIIA degree burns [1]; day 5 after thermal injury) | Burn wound oedema score (II-IIIA degree burns [1]; day 7 after thermal injury) | Reduction of hyperaemia compared with Dexpanthenol (II-IIIA degree burns [1]; topical 0.02-0.5% solution) | Average healing rate of burn wounds, difference to control Group I (II-IIIA degree burns [1]; topical 0.02-0.5% solution, FIG. 1) | Burn area (planimetry), dynamics of burn wound healing (II-IIIA degree burns [1]; topical 0.02-0.5% solution, vs control and Dexpanthenol) | Day on which lymphocyte-neutrophil ratio returned to normal (II-IIIA degree burns [1]; venous blood, topical 0.02-0.5% solution, FIG. 2) | Tensiometric evaluation, superiority relative to control Group I (linear wounds; day 7 of the experiment) | Healing of the linear wound (visual inspection) (linear wounds; once daily for 20 days, relative to control and comparator, FIG. 3) | Histological evaluation of the scar (linear wounds; samples collected after complete healing (days 25-26)) | Average healing rate of burn wounds, difference to control Group I (II-IIIA degree burns [2]; 0.02% topical gel (Group III)) | Burn area (planimetry), dynamics of burn wound healing (II-IIIA degree burns [2]; 0.02% topical gel (Group III)) | Average healing rate of burn wounds, difference to control Group I (II-IIIA degree burns [2]; 0.5% topical gel (Group IV)) | Burn area (planimetry), dynamics of burn wound healing (II-IIIA degree burns [2]; 0.5% topical gel (Group IV)) | Reduction of burn area, 0.5% gel (Group IV) relative to 0.02% gel (Group III) (II-IIIA degree burns [2]; not statistically significant) | Mortality rate (burn injury) | Skin repair and productive inflammation (3rd degree burn) | Effect on activated neutrophils and NADPHase activity (neutrophils; blood of healthy humans (n=27)) | Effect on functional and metabolic activity of neutrophils (neutrophils; peripheral blood samples of burn patients (n=15))
1 | CC(C)(CO)[C@@H](O)C(=O)NCCCO [Dexpanthenol, dexpanthenol] | 7 days | 2.0±0.5 points | 0.7±0.5 points | 0.3±0.3 points | – | – | – | – | – | – | – | – | – | – | – | – | – | – | – | –
2 | CC(C)C[C@H](NC(=O)[C@H](Cc1ccccc1)NC(=O)CNC(=O)[C@@H](C)NC(=O)[C@@H](N)Cc1ccc(O)cc1)C(=O)N[C@@H](CCCNC(=N)N)C(=O)O [tyrosyl-D-alanyl-glycyl-phenylalanyl-leucyl-arginine] (HELM PEPTIDE1{Y.[dA].G.F.L.R}$$$$V2.0) | 5 days | 1.0±0.4 points | 0.3±0.2 points | 0.0±0.0 points | statistically significantly more effective | Statistically significant differences | significant reduction of burn area already on day 3 | 7 days | over than twofold | more rapid healing of the linear wound | fibrous components were dominant in scar tissue relative to cellular components | Statistically significant differences | pronounced statistically significant positive dynamics of burn wound healing | Statistically significant differences | pronounced statistically significant positive dynamics of burn wound healing | numerically greater reduction of burn area | 75% | significant acceleration of skin repair and reduced intensity of productive inflammation | increasing the total number of activated neutrophils and NADPHase activity | normalized elevated functional and metabolic activity of neutrophils
3 | delta sleep-inducing peptide [DSIP] | – | – | – | – | – | – | – | – | – | – | – | – | – | – | – | – | 20% | – | – | –
